Common to all, as to format: cell-based, Saccharomyces cerevisiae
Assay [1] concerns RE700A e PCDR1-HXT7 (ET[CDR1]). The experiment in a line: Growth inhibition of ET[CDR1] by 2-DG. The settings on record: liquid media, 20 h 28° C., compared to growth in the absence of 2-DG. Here is the method: FIG. 6: Growth inhibition of RE700A, ET[CDR1] and ET[CDR2] in the presence of increasing 2-DG concentrations after 20 h incubation at 28° C. for in liquid medium. RE700A, ET[CDR1] and ET[CDR2] were incubated 20 h at 28° C. with maltose (2% (w/v)) as the sole carbon source in the presence of increasing 2-DG concentrations in liquid medium. The optical density was measured at 600 nm semi-continuously every 15 minutes and the integral under the growth curve was calculated. Inhibition of growth is shown in percent compared to growth in the absence of 2-DG. Growth of ET[CDR1] was inhibited by 92% at a 2-DG concentration in liquid media of 0.05% (w/v), by 94% at a 2-DG concentration in liquid media of 0.075% (w/v), by 93% at a 2-DG concentration in liquid media of 0.1% (w/v) and by 95% at a 2-DG concentration of 0.2% (w/v). Growth of ET[CDR2] was inhibited by 50% at a 2-DG concentration in liquid media of 0.05% (w/v), by 70% at a 2-DG concentration in liquid media of 0.075% (w/v), by 70% at a 2-DG concentration in liquid media of 0.1% (w/v) and by 84% at a 2-DG concentration of 0.2% (w/v).
(1) Episomal screening system for inhibitors of PCDR1: S. cerevisiae strain RE700A was transformed with plasmids pY-PCDR1-HXT7 and pY-PCDR1-GFP yielding strains ET[CDR1] and CQ[CDR1] (for details see Examples 1 and 2, for the complete genotype refer to Table 1). The inhibition of growth of ET[CDR1] by 2-DG was tested. The growth of this strain was inhibited to more than 90% at a 2-DG concentration of 0.05% (w/v) (FIG. 6). To screen for inhibitors of the PCDR1, the test strain ET[CDR1] can be incubated in selective YNB medium with 2% (w/v) maltose as the carbon source and 0.05% (w/v) 2-DG. Under these non-permissive conditions the growth of the test strain ET[CDR1] was inhibited when PCDR1 was active (FIG. 6).

Assay [2] deals with RE700A Δpdr1,pdr3 tok1::PPDR5-HXT7. In words: Growth inhibition of RE700A Δpdr1,pdr3 tok1::PPDR5-HXT7 by 2-DG. The settings on record: RE700A Δpdr1,pdr3 tok1::PPDR5-HXT7, up to a 2-DG concentration of 0.03% (w/v). Here is the method:
(§1) (A) Growth inhibition of RE700A i PPDR5-HXT7 (IT[PDR]), RE700A Δpdr1 tok1::PPDR5-HXT7, RE700A Δpdr3 tok1::PPDR5-HXT7 and RE700A Δpdr1,pdr3 tok1::PPDR5-HXT7 at increasing 2-DG concentrations. RE700A i PPDR5-HXT7 (IT[PDR]), RE700A Δpdr1 tok1::PPDR5-HXT7, RE700A Δpdr3 tok1::PPDR5-HXT7 and RE700A Δpdr1,pdr3 tok1::PPDR5-HXT7 were incubated 20 h at 28° C. with Maltose (2% (w/v)) as the sole carbon source and 2-DG concentrations as indicated. The optical density was measured at 600 nm every 15 minutes and the integral under the growth curve was calculated. Inhibition of growth caused by 2-DG is shown in percent. The growth of the strain RE700A tok1::PPDR5-HXT7 (IT[PDR]) was inhibited by 50% at 0.02% (w/v) 2-DG. Growth of the strains RE700A Δpdr1 tok1::PPDR5-HXT7 and RE700A Δpdr3 tok1::PPDR5-HXT7 was inhibited by 50% at 0.026% (w/v) 2-DG.
(§2) All strains expressing HXT7 were tested for sensitivity to 2-DG. The strains expressing GFP under the control of PPDR5 were additionally analysed for GFP fluorescence in comparison to RE700Ae PPDR5-GFP (strain CQ[PDR]).

In assay [3] the test system is RE700A Δpdr3 tok1::PPDR5-HXT7. The experiment in a line: Growth inhibition of RE700A Δpdr3 tok1::PPDR5-HXT7 by 2-DG. The settings on record: RE700A Δpdr3 tok1::PPDR5-HXT7, maltose, 20 h 28° C. How it is done: as §1, §2
The test system of assay [4] is RE700A i PCDR1-HXT7 (IT[CDR1]). The experiment in a line: Growth inhibition of IT[CDR1] by 2-DG. To be noted: 20 h 28° C., maltose, regarding growth in the absence of 2-DG. How it is done:
FIG. 7: Growth inhibition of RE700A and IT[CDR1] by 2-DG. RE700A and IT[CDR1] were incubated for 20 h at 28° C. with maltose (2% (w/v)) as the sole carbon source and increasing 2-DG concentrations as indicated. The optical density was measured at 600 nm every 15 minutes and the integral under the growth curve was calculated. Inhibition of growth is shown in percent regarding growth in the absence of 2-DG. Growth of IT[CDR1] was inhibited by 45% at a 2-DG concentration of 0.01% (w/v), by 91% at a 2-DG concentration of 0.03% (w/v), by 92% at a 2-DG concentration of 0.05% (w/v), by 92% at a 2-DG concentration of 0.1% (w/v), by 94% at a 2-DG concentration of 1% (w/v), by 95% at a 2-DG concentration of 2% (w/v) and by 95% at a 2-DG concentration of 3% (w/v).
(3) Integrated screening system for inhibitors of PCDR1: S. cerevisiae strain RE700A was genetically modified as described in Example 1 and 2 to yield strain IT[CDR1], chromosomally expressing HXT7 under the control of the promoter of CDR1 (PCDR1) (for the complete genotype see Table 1). The inhibition of growth of IT[CDR1] by 2-DG was tested. The growth of this strain was inhibited by more than 90% at a 2-DG concentration of 0.03% (w/v) (FIG. 7)

Molecules are shown by their SMILES. “Also recorded” adds a separate entry of the source.

These results are taken from patent US9121026B2 (priority 2004, dated 2015).

One may read the Inhibition of growth as how much of the control response was suppressed. The low end stands for a response near the control, the high end for a response far below the control.

Consider `O=CC[C@@H](O)[C@H](O)[C@H](O)CO` [2-DG, 2-deoxy-glucose], for which the Inhibition of growth was 94% in assay [1] (0.075% (w/v) 2-DG); 93% in assay [1] (0.1% (w/v) 2-DG); 95% in assay [1] (0.2% (w/v) 2-DG); 45% in assay [4] (0.01% (w/v) 2-DG); 92% in assay [4] (0.05% (w/v) 2-DG); 92% in assay [4] (0.1% (w/v) 2-DG). Also, the Inhibition of growth in assay [4] (1% (w/v) 2-DG) was 94%; in assay [4] (2% (w/v) 2-DG) it was 95%; in assay [4] (3% (w/v) 2-DG), 95%. Besides, the “Growth inhibition / 2-DG sensitivity” value in assay [2] was “did not show significant 2-DG sensitivity; also recorded: not significantly inhibited”. The “2-DG concentration for 50% growth inhibition” value in assay [3] was 0.026 % (w/v).
